Results taken from patent US10028949B2, “Parenteral formulations of lipophilic pharmaceutical agents and methods for preparing and using the same” (priority 2011, dated 2018).
Converted amounts (≈) assume the structure as drawn. “And” between values parts separate entries of the source, which are not always exact repeats. Equal entries are not always repeated. Where two headings read alike, the source gives them in different places.

Legend:
[1] = Plasma clearance of Itraconazole and Posaconazole after IV injection in mice; type: in vivo, Swiss Webster mice
Procedure: To avoid analytical interference from endogenous plasma proteins in the chromatogram when assaying Itra and Posa in plasma samples, an extraction/purification step utilizing precipitation of protein material with acetonitrile was performed. Briefly, plasma proteins were precipitated by adding acetonitrile to a final volume ratio plasma:acetonitrile of 1:2. The mixture was vortexed for 30 seconds and centrifuged for 5 min. at 14,000 rpm in an Eppendorff microcentrifuge. The deproteinated supernatant, containing Itra, was injected into the HPLC to determine the drug concentration.

[2] = tested on: Mucorales (Rhizopus lab strain); experiment: Mold susceptibility test (MIC); type: cell-based; details: Table 4, read-out at 48 hr, range tested 32 ug/ml to 0.03 ug/ml
[3] = tested on: Aspergillus fumigatus (ATCC strain 90906); experiment: Mold susceptibility test (MIC, CLSI M38A); type: cell-based; details: Table 4, read-out at 48 hr, range tested 32 ug/ml to 0.03 ug/ml
Source text: To further determine the antifungal activity of the compounds in the new formulation systems the inventors investigated the efficacy of the various agents against additional strains of mucor and Aspergillus (The Rhizomucor was a clinical isolate from a patient isolate) and the Aspergillus fumigatus (ATCC strain 90906) used was as previously described. Again, the susceptibility tests were set-up using the standardized test method (CLSI M38A). The used drugs were provided in the described final use-formulation VE-acetone/PEG/D5W. All drugs were diluted in RPMI-Mops medium: YeastOne, Sensititer (Lot 151416SA, expiration date in 2011).
Briefly, susceptibility tests were set-up using a standardized methodology (CLSI M38A). Drugs were diluted into RPMI-Mops medium (Yeast One Broth (Sensititer, product Y3462, Trek Diagnostic Systems, Cleveland, Ohio) Sensititer Lot number 151416SA—expiration date 2011). Two different strains of […] were tested, the standardized evaluation/read out was performed at 24 hours after the start of each culture. The tests were repeated twice and all MIC values (minimum inhibitory concentration) determined as an average of the two experiments.

[4] = tested on: Aspergillus fumigatus [LAB-A from patient AF 040 511]; experiment: Mold susceptibility test (MIC, CLSI M38A); type: cell-based; details: at 48 hr, in novel solvent
Procedure: (§1) The range of drug concentrations tested was 150, 25, 12, 6, 3, 1.5, 0.75, 0.38, 0.19, 0.09, 0.04, and 0 (control) μg/mL. The susceptibility test was set-up using the standard method for filamentous fungi (CLSI, M38A standard). […] Zygomycete (Lab Z) inoculum was made 80% transmission in Saline. […] Posa was supplied at 2.0 mg/ml in vehicle. The Zygomycete was incubated at 33° C. for the first 24 hr to get growth established.

[5] = tested on: Rhizomucor sp. [Lab-Z is derived from patient 041511]; experiment: Mold susceptibility test (MIC, CLSI M38A); type: cell-based; details: at 48 hr, in novel solvent
Procedure: as §1

SMILES: CCC(C)n1ncn(-c2ccc(N3CCN(c4ccc(OCC5COC(Cn6cncn6)(c6ccc(Cl)cc6Cl)O5)cc4)CC3)cc2)c1=O (stereo not drawn) [Itraconazole, itraconazole]
- plasma concentration, individual ([1]; 5 mg/kg IV, mice, 10 min): 3860 ng/mL and 3590 ng/mL and 2130 ng/mL
- plasma concentration, individual ([1]; 5 mg/kg IV, mice, 30 min): 1930 ng/mL
- plasma concentration, individual ([1]; 5 mg/kg IV, mice, 120 min): 770 ng/mL
- concentration at 10 min ([1]; Swiss Webster, mouse, plasma, intravenous, 5 mg/kg, 5 mg/kg IV, mice, 10 min, read-out: plasma concentration, individual): 3340 ng/mL
- concentration at 10 min ([1]; Swiss Webster, mouse, plasma, intravenous, 5 mg/kg, 5 mg/kg IV, mice, 10 min, read-out: plasma concentration, mean): 3230 ng/mL
- concentration at 30 min ([1]; Swiss Webster, mouse, plasma, intravenous, 5 mg/kg, 5 mg/kg IV, mice, 30 min, read-out: plasma concentration, individual): 1310 ng/mL
- concentration at 30 min ([1]; Swiss Webster, mouse, plasma, intravenous, 5 mg/kg, 5 mg/kg IV, mice, 30 min, read-out: plasma concentration, mean): 1620 ng/mL
- concentration at 60 min ([1]; Swiss Webster, mouse, plasma, intravenous, 5 mg/kg, 5 mg/kg IV, mice, read-out: plasma concentration, individual): 770 ng/mL
- concentration at 60 min ([1]; Swiss Webster, mouse, plasma, intravenous, 5 mg/kg, 5 mg/kg IV, mice, read-out: plasma concentration, mean): 770 ng/mL
- concentration at 120 min ([1]; Swiss Webster, mouse, plasma, intravenous, 5 mg/kg, 5 mg/kg IV, mice, 120 min, read-out: plasma concentration, individual): 640 ng/mL
- concentration at 120 min ([1]; Swiss Webster, mouse, plasma, intravenous, 5 mg/kg, 5 mg/kg IV, mice, 120 min, read-out: plasma concentration, mean): 710 ng/mL

SMILES: CCC(C)n1ncn(-c2ccc(N3CCN(c4ccc(OCC5COC(Cn6cncn6)(c6ccc(Cl)cc6Cl)O5)cc4)CC3)cc2)c1=O (stereo not drawn) [Itra/D, itraconazole]
- MIC [2]: 0.6 µg/mL (≈ 0.85 µM)
- MIC [3]: 0.12 µg/mL (≈ 0.17 µM)

SMILES: CC[C@@H]([C@H](C)O)n1ncn(-c2ccc(N3CCN(c4ccc(OC[C@@H]5CO[C@@](Cn6cncn6)(c6ccc(F)cc6F)C5)cc4)CC3)cc2)c1=O [Posa/D, posaconazole]
- MIC [2]: 0.12 µg/mL (≈ 0.171 µM)
- MIC [3]: 0.03 µg/mL (≈ 0.0428 µM)

SMILES: CC[C@@H]([C@H](C)O)n1ncn(-c2ccc(N3CCN(c4ccc(OC[C@@H]5CO[C@@](Cn6cncn6)(c6ccc(F)cc6F)C5)cc4)CC3)cc2)c1=O [Posaconazole, posaconazole]
- plasma concentration ([1]; 5 mg/kg BW in mice, from ten minutes to at least 2 hours after drug injection): 3000 to 5000 ng/mL
- plasma concentration, individual ([1]; 5 mg/kg IV, mice, 0.2 hours): 3430 ng/mL and 1880 ng/mL and 4590 ng/mL and 4820 ng/mL
- plasma concentration, individual ([1]; 5 mg/kg IV, mice, 2.0 hours): 4850 ng/mL and 5030 ng/mL and 4210 ng/mL
- plasma concentration, individual ([1]; 5 mg/kg IV, mice, 7.0 hours): 3860 ng/mL
- plasma concentration, individual ([1]; 5 mg/kg IV, mice, 24 hours): 30 ng/mL and 560 ng/mL and 470 ng/mL
- plasma concentration, individual ([1]; 5 mg/kg IV, mice, 30 hours): 140 ng/mL and 290 ng/mL and 40 ng/mL
- concentration at 0.2 hours ([1]; Swiss Webster, mouse, plasma, intravenous, 5 mg/kg, 5 mg/kg IV, mice, 0.2 hours): 3680 ng/mL
- concentration at 2 hours ([1]; Swiss Webster, mouse, plasma, intravenous, 5 mg/kg, 5 mg/kg IV, mice, 2.0 hours, read-out: plasma concentration, individual): 4990 ng/mL
- concentration at 2 hours ([1]; Swiss Webster, mouse, plasma, intravenous, 5 mg/kg, 5 mg/kg IV, mice, 2.0 hours, read-out: plasma concentration, mean): 4770 ng/mL
- concentration at 7 hours ([1]; Swiss Webster, mouse, plasma, intravenous, 5 mg/kg, 5 mg/kg IV, mice, 7.0 hours, read-out: plasma concentration, individual): 2610 ng/mL
- concentration at 7 hours ([1]; Swiss Webster, mouse, plasma, intravenous, 5 mg/kg, 5 mg/kg IV, mice, 7.0 hours, read-out: plasma concentration, mean): 3230 ng/mL
- concentration at 24 hours ([1]; Swiss Webster, mouse, plasma, intravenous, 5 mg/kg, 5 mg/kg IV, mice, 24 hours): 350 ng/mL
- concentration at 30 hours ([1]; Swiss Webster, mouse, plasma, intravenous, 5 mg/kg, 5 mg/kg IV, mice, 30 hours): 160 ng/mL
- MIC [4]: 0.04 µg/mL (≈ 0.0571 µM)
- MIC [5]: 0.04 µg/mL (≈ 0.0571 µM)
